# Tests used:
# Assay type in all cases: in vivo
# [1] = system: morningglory (Ipomoea spp.); experiment: Test A pre-/postemergence plant response
# Summary of the method: (§1)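 Both pre- and postemergence treatments are applied simultaneously, using chemicals formulated in a non-phytotoxic solvent mixture with surfactant. Postemergence plants are 2–10 cm high with one to two leaves. After approximately ten days in a greenhouse, injury is scored visually from 0 (none) to 100 (complete control) relative to untreated plants.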
# [2] = system: pigweed (Amaranthus retroflexus); experiment: Test A pre-/postemergence plant response
# Summary of the method: as §1
# [3] = system: large crabgrass (Digitaria sanguinalis); experiment: Test A pre-/postemergence plant response
# Summary of the method: as §1
# [4] = system: barnyardgrass (Echinochloa crus-galli); experiment: Test A pre-/postemergence plant response
# Summary of the method: as §1
# [5] = system: giant foxtail (Setaria faberii); experiment: Test A pre-/postemergence plant response
# Summary of the method: as §1
# [6] = system: velvetleaf (Abutilon theophrasti); experiment: Test A pre-/postemergence plant response
# Summary of the method: as §1
# [7] = system: wheat (Triticum aestivum); experiment: Test A pre-/postemergence plant response
# Summary of the method: as §1
# [8] = system: corn (Zea mays); experiment: Test A pre-/postemergence plant response
# Summary of the method: as §1
# [9] = system: canarygrass (Phalaris minor); experiment: Test B postemergence plant response; settings: for Canarygrass plant response rating (0 to 100 scale): 62 g ai/ha, 0 is no effect, 13 to 15 days
# Summary of the method: (§2)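 Plants at the 1- to 4-leaf stage (2 to 18 cm tall), grown in pots of peat moss/vermiculite medium with wetting agent and starter nutrients, received postemergence applications of test chemicals. After 13 to 15 days in a greenhouse, injury was rated visually against untreated controls on a 0 (no effect) to 100 (complete control) scale.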
# [10] = system: windgrass (Apera spica-venti); experiment: Test B postemergence plant response; settings: for Windgrass plant response rating (0 to 100 scale): 62 g ai/ha, 0 is no effect, 13 to 15 days
# Summary of the method: as §2
# [11] = system: winter barley (Hordeum vulgare); experiment: Test B postemergence plant response; settings: for Barley plant response rating (0 to 100 scale): 62 g ai/ha, 0 is no effect, 13 to 15 days
# Summary of the method: as §2
# [12] = system: chickweed (Stellaria media); experiment: Test B postemergence plant response; settings: for Chickweed plant response rating (0 to 100 scale): 62 g ai/ha, 0 is no effect, 13 to 15 days
# Summary of the method: as §2
# [13] = Postemergence, 125 g ai/ha, 0 to 100 scale where 0 is no effect and 100 is complete control
# [14] = Postemergence, 500 g ai/ha, 0 to 100 scale, 0 = no effect, 100 = complete control, approx. ten days
# [15] = Preemergence, 125 g ai/ha, 0 to 100 scale, 0 = no effect, 100 = complete control
# [16] = Preemergence, 500 g ai/ha, visual injury, 0 to 100 scale (0 no effect, 100 complete control), approx. ten days
# [17] = 31 g ai/ha, postemergence, scale 0 to 100, 0 is no effect, 100 is complete control
# [18] = postemergence, 100 is complete control
# [19] = Postemergence, 125 g ai/ha, visual rating after 13 to 15 days, scale 0 (no effect) to 100 (complete control)
# [20] = Postemergence, 250 g ai/ha, scale 0 to 100 (0 no effect, 100 complete control)
smiles,measurement,setting,value
CCCc1ncc(C(=O)C2=C(O)CCCC2=O)c(=O)n1-c1ccccc1C [Compound 73],"Plant response rating, Morningglory",[1]; [13],100
same,"Plant response rating, Morningglory",[1]; [14],100
same,"Plant response rating, Morningglory",[1]; [15],10
same,"Plant response rating, Morningglory",[1]; [16],80
same,"Plant response rating, Pigweed",[2]; [13],100
same,"Plant response rating, Pigweed",[2]; [14],100
same,"Plant response rating, Pigweed",[2]; [15],100
same,"Plant response rating, Pigweed",[2]; [16],100
same,"Plant response rating, Crabgrass, Large",[3]; [13],90
same,"Plant response rating, Crabgrass, Large",[3]; [14],90
same,"Plant response rating, Crabgrass, Large",[3]; [15],70
same,"Plant response rating, Crabgrass, Large",[3]; [16],100
same,"Plant response rating, Barnyardgrass",[4]; [13],70
same,"Plant response rating, Barnyardgrass",[4]; [14],90
same,"Plant response rating, Barnyardgrass",[4]; [15],0
same,"Plant response rating, Barnyardgrass",[4]; [16],70
same,"Plant response rating, Foxtail, Giant",[5]; [13],80
same,"Plant response rating, Foxtail, Giant",[5]; [14],90
same,"Plant response rating, Foxtail, Giant",[5]; [15],50
same,"Plant response rating, Foxtail, Giant",[5]; [16],70
same,"Plant response rating, Velvetleaf",[6]; [13],100
same,"Plant response rating, Velvetleaf",[6]; [14],100
same,"Plant response rating, Velvetleaf",[6]; [15],80
same,"Plant response rating, Velvetleaf",[6]; [16],100
same,"Plant response rating, Wheat",[7]; [13],10
same,"Plant response rating, Wheat",[7]; [14],50
same,"Plant response rating, Wheat",[7]; [15],10
same,"Plant response rating, Wheat",[7]; [16],30
same,"Plant response rating, Corn",[8]; [13],30
same,"Plant response rating, Corn",[8]; [14],60
same,"Plant response rating, Corn",[8]; [15],0
same,"Plant response rating, Corn",[8]; [16],0
same,"Plant response rating, Canarygrass",[9]; [17],0
same,Canarygrass plant response rating (0 to 100 scale),[9]; [18],0
same,"Plant response rating, Canarygrass",[9]; [19],5
same,"Plant response rating, Canarygrass",[9]; [20],40
same,"Plant response rating, Windgrass",[10]; [17],70
same,Windgrass plant response rating (0 to 100 scale),[10]; [18],80
same,"Plant response rating, Windgrass",[10]; [19],90
same,"Plant response rating, Windgrass",[10]; [20],98
same,"Plant response rating, Barley",[11]; [17],0
same,Barley plant response rating (0 to 100 scale),[11]; [18],0
same,"Plant response rating, Barley",[11]; [19],0
same,"Plant response rating, Barley",[11]; [20],10
same,"Plant response rating, Chickweed",[12]; [17],80
same,Chickweed plant response rating (0 to 100 scale),[12]; [18],80
same,"Plant response rating, Chickweed",[12]; [19],95
same,"Plant response rating, Chickweed",[12]; [20],100
CCCc1ncc(C(=O)C2=C(O)CCCC2=O)c(=O)n1CC1CCCO1 (stereo not drawn) [Compound 74],"Plant response rating, Morningglory",[1]; [13],90
same,"Plant response rating, Morningglory",[1]; [14],100
same,"Plant response rating, Morningglory",[1]; [15],40
same,"Plant response rating, Morningglory",[1]; [16],60
same,"Plant response rating, Pigweed",[2]; [13],100
same,"Plant response rating, Pigweed",[2]; [14],100
same,"Plant response rating, Pigweed",[2]; [15],90
same,"Plant response rating, Pigweed",[2]; [16],100
same,"Plant response rating, Crabgrass, Large",[3]; [13],90
same,"Plant response rating, Crabgrass, Large",[3]; [14],90
same,"Plant response rating, Crabgrass, Large",[3]; [15],70
same,"Plant response rating, Crabgrass, Large",[3]; [16],90
same,"Plant response rating, Barnyardgrass",[4]; [13],80
same,"Plant response rating, Barnyardgrass",[4]; [14],90
same,"Plant response rating, Barnyardgrass",[4]; [15],30
same,"Plant response rating, Barnyardgrass",[4]; [16],60
same,"Plant response rating, Foxtail, Giant",[5]; [13],40
same,"Plant response rating, Foxtail, Giant",[5]; [14],80
same,"Plant response rating, Foxtail, Giant",[5]; [15],0
same,"Plant response rating, Foxtail, Giant",[5]; [16],40
same,"Plant response rating, Velvetleaf",[6]; [13],90
same,"Plant response rating, Velvetleaf",[6]; [14],100
same,"Plant response rating, Velvetleaf",[6]; [15],70
same,"Plant response rating, Velvetleaf",[6]; [16],90
same,"Plant response rating, Wheat",[7]; [13],0
same,"Plant response rating, Wheat",[7]; [14],20
same,"Plant response rating, Wheat",[7]; [15],0
same,"Plant response rating, Wheat",[7]; [16],0
same,"Plant response rating, Corn",[8]; [13],0
same,"Plant response rating, Corn",[8]; [14],20
same,"Plant response rating, Corn",[8]; [15],0
same,"Plant response rating, Corn",[8]; [16],0
same,"Plant response rating, Canarygrass",[9]; [17],0
same,Canarygrass plant response rating (0 to 100 scale),[9]; [18],0
same,"Plant response rating, Canarygrass",[9]; [19],0
same,"Plant response rating, Canarygrass",[9]; [20],0
same,"Plant response rating, Windgrass",[10]; [17],5
same,Windgrass plant response rating (0 to 100 scale),[10]; [18],60
same,"Plant response rating, Windgrass",[10]; [19],80
same,"Plant response rating, Windgrass",[10]; [20],95
same,"Plant response rating, Barley",[11]; [17],0
same,Barley plant response rating (0 to 100 scale),[11]; [18],0
same,"Plant response rating, Barley",[11]; [19],0
same,"Plant response rating, Barley",[11]; [20],0
same,"Plant response rating, Chickweed",[12]; [17],75
same,Chickweed plant response rating (0 to 100 scale),[12]; [18],85
same,"Plant response rating, Chickweed",[12]; [19],95
same,"Plant response rating, Chickweed",[12]; [20],100
